How the values were obtained:
Brain [1] = assay: Drug uptake albino mouse brain at 5 mg equivalent of oxazepam/kg, iv after 5 mins measured per gm of tissue by thin-layer chromatography; assay type: ADME, organism-based; conditions: in vivo
Brain [2] = assay: Drug uptake albino mouse brain at 5 mg equivalent of oxazepam/kg, iv after 60 mins measured per gm of tissue by thin-layer chromatography; assay type: ADME, organism-based; conditions: in vivo, 1 h
Brain [3] = assay: Drug uptake albino mouse brain at 5 mg equivalent of oxazepam/kg, iv after 40 mins measured per gm of tissue by thin-layer chromatography; assay type: ADME, organism-based; conditions: in vivo
Brain [4] = assay: Drug uptake albino mouse brain at 5 mg equivalent of oxazepam/kg, iv after 20 mins measured per gm of tissue by thin-layer chromatography; assay type: ADME, organism-based; conditions: in vivo
Brain [5] = assay: Drug uptake albino mouse brain at 5 mg equivalent of oxazepam/kg, iv after 10 mins measured per gm of tissue by thin-layer chromatography; assay type: ADME, organism-based; conditions: in vivo
[6] = Retardation factor, Rm of the compound by thin-layer chromatography; assay type: physicochemical
Brain [7] = assay: Drug uptake albino mouse brain at 5 mg equivalent of oxazepam/kg, iv after 2 mins measured per gm of tissue by thin-layer chromatography; assay type: ADME, organism-based; conditions: in vivo
Brain [8] = assay: Drug uptake albino mouse brain at 5 mg equivalent of oxazepam/kg, iv after 240 mins measured per gm of tissue by thin-layer chromatography; assay type: ADME, organism-based; conditions: in vivo, 4 h
Brain [9] = assay: Drug uptake albino mouse brain at 5 mg equivalent of oxazepam/kg, iv after 120 mins measured per gm of tissue by thin-layer chromatography; assay type: ADME, organism-based; conditions: in vivo, 2 h
Brain [10] = assay: Drug uptake albino mouse brain at 15 mg equivalent of oxazepam/kg, iv after 20 mins measured per gm of tissue by thin-layer chromatography; assay type: ADME, organism-based; conditions: in vivo
Brain [11] = assay: Drug uptake albino mouse brain at 15 mg equivalent of oxazepam/kg, iv after 3 mins measured per gm of tissue by thin-layer chromatography; assay type: ADME, organism-based; conditions: in vivo, 0.05 h
Brain [12] = assay: Drug uptake albino mouse brain at 15 mg equivalent of oxazepam/kg, iv after 90 mins measured per gm of tissue by thin-layer chromatography; assay type: ADME, organism-based; conditions: in vivo, 1.5 h
Brain [13] = assay: Drug uptake albino mouse brain at 15 mg equivalent of oxazepam/kg, iv after 1 mins measured per gm of tissue by thin-layer chromatography; assay type: ADME, organism-based; conditions: in vivo
Brain [14] = assay: Drug uptake albino mouse brain at 15 mg equivalent of oxazepam/kg, iv after 180 mins measured per gm of tissue by thin-layer chromatography; assay type: ADME, organism-based; conditions: in vivo, 3 h
Brain [15] = assay: Drug uptake albino mouse brain at 15 mg equivalent of oxazepam/kg, iv after 12 mins measured per gm of tissue by thin-layer chromatography; assay type: ADME, organism-based; conditions: in vivo, 0.2 h
Brain [16] = assay: Drug uptake albino mouse brain at 15 mg equivalent of oxazepam/kg, iv after 40 mins measured per gm of tissue by thin-layer chromatography; assay type: ADME, organism-based; conditions: in vivo
Brain [17] = assay: Drug uptake albino mouse brain at 5 mg equivalent of oxazepam/kg, iv after 1 min measured per gm of tissue by thin-layer chromatography; assay type: ADME, organism-based; conditions: in vivo
Brain [18] = assay: Drug uptake albino mouse brain at 5 mg equivalent of oxazepam/kg, iv after 6 mins measured per gm of tissue by thin-layer chromatography; assay type: ADME, organism-based; conditions: in vivo, 0.1 h
Brain [19] = assay: Drug uptake albino mouse brain at 5 mg equivalent of oxazepam/kg, iv after 30 mins measured per gm of tissue by thin-layer chromatography; assay type: ADME, organism-based; conditions: in vivo, 0.5 h

| Structure (SMILES) | Drug uptake (Brain [1]) [nmol] | Drug uptake (Brain [2]) [nmol] | Drug uptake (Brain [3]) [nmol] | Drug uptake (Brain [4]) [nmol] | Drug uptake (Brain [5]) [nmol] | Rm [6] | Drug uptake (Brain [7]) [nmol] | Drug uptake (Brain [8]) [nmol] | Drug uptake (Brain [9]) [nmol] | Drug uptake (Brain [10]) [nmol] | Drug uptake (Brain [11]) [nmol] | Drug uptake (Brain [12]) [nmol] | Drug uptake (Brain [13]) [nmol] | Drug uptake (Brain [14]) [nmol] | Drug uptake (Brain [15]) [nmol] | Drug uptake (Brain [16]) [nmol] | Drug uptake (Brain [17]) [nmol] | Drug uptake (Brain [18]) [nmol] | Drug uptake (Brain [19]) [nmol] |
| --- | --- | --- | --- | --- | --- | --- | --- | --- | --- | --- | --- | --- | --- | --- | --- | --- | --- | --- | --- |
| CC(C)C(=O)OC1N=C(c2ccccc2)c2cc(Cl)ccc2N[14C]1=O (configuration not stated) | 5.7 | 10.8 | 11.6 | 9.3 | 8.9 | 0.12 | 3.1 | 3.8 | 5.9 | – | – | – | – | – | – | – | – | – | – |
| CCCC(=O)OC1N=C(c2ccccc2)c2cc(Cl)ccc2N[14C]1=O (configuration not stated) | – | – | – | – | – | 0.17 | – | – | – | 25.9 | 17.3 | 38.2 | 16.6 | 22.6 | 19 | 32 | – | – | – |
| COC(=O)CCC(=O)OC1N=C(c2ccccc2)c2cc(Cl)ccc2N[14C]1=O (configuration not stated) | – | 9.8 | – | – | – | -0.03 | – | – | – | – | – | – | – | – | – | – | 0.8 | 3.8 | 10.8 |
